The results in this text go back to ChEMBL document CHEMBL2010662, “Discovery of oxazole-based PDE4 inhibitors with picomolar potency” (Bioorg Med Chem Lett, 2012).

pIC50: −log10 of the molar value. Some results are limits rather than exact numbers.

The target of series [1] is 3',5'-cyclic-AMP phosphodiesterase 4B (Homo sapiens, UniProt Q07343). The series can be described thus: Inhibition of PDE4B.
Series [2] is described as follows: Inhibition of PDE10.
Series [3] has as its target Dual 3',5'-cyclic-AMP and -GMP phosphodiesterase 11A (Homo sapiens, UniProt Q9HCR9). The experiment in a line: Inhibition of PDE11.
The target in series [4] is 3',5'-cyclic-AMP phosphodiesterase 4D (Homo sapiens, UniProt Q08499). The experiment in a line: Inhibition of PDE4D.
Chain of 3',5'-cyclic-AMP phosphodiesterase 4D (Q08499 whole entry): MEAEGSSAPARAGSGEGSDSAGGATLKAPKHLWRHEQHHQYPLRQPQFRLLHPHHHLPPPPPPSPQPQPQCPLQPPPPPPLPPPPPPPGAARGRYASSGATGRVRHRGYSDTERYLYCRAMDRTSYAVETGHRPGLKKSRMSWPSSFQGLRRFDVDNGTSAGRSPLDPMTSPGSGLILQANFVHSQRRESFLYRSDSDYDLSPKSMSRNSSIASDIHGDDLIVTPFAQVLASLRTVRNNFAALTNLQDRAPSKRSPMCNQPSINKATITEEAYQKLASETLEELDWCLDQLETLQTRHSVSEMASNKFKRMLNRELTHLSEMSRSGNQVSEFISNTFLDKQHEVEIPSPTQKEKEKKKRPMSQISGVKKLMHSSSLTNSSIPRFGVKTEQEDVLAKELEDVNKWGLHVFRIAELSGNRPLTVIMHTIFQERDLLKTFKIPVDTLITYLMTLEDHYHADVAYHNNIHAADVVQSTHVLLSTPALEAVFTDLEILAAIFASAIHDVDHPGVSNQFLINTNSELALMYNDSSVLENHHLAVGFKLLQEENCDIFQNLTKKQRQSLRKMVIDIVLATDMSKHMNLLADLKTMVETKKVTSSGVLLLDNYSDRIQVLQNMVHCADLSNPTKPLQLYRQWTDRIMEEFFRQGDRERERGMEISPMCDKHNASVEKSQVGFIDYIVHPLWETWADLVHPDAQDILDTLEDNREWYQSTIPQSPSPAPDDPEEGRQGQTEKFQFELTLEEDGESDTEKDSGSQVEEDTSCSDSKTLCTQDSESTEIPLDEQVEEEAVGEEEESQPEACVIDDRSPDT
Series [5] in a line: Inhibition of PDE4-mediated TNF-alpha release by cell based assay.
Series [6] in a line: Oral bioavailability in rat at 10 mg/kg. In kind it is ADME, organism-based. Conditions: in vivo.
The next series deals with Cytochrome P450 2C19 (Homo sapiens, UniProt P33261). The experiment in a line: Inhibition of CYP2C19. Type of series: ADME.
Chain of Cytochrome P450 2C19 (P33261 whole entry): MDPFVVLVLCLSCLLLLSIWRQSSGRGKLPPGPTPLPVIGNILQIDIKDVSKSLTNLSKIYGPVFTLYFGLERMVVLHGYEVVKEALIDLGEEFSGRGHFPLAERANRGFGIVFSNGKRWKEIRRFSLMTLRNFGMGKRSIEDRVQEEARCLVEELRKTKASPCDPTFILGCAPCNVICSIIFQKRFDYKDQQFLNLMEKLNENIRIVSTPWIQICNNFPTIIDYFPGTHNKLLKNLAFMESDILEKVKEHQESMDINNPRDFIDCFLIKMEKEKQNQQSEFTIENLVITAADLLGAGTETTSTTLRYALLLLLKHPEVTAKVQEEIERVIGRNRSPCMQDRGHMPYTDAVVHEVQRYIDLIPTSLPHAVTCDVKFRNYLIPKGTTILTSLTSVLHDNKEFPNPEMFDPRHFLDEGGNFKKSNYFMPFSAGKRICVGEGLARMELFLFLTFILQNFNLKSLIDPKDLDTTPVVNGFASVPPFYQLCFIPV
The target in the next series is Cytochrome P450 2C9 (Homo sapiens, UniProt P11712). The experiment in a line: Inhibition of CYP2C9. Type of series: ADME.
Chain of Cytochrome P450 2C9 (P11712 whole entry): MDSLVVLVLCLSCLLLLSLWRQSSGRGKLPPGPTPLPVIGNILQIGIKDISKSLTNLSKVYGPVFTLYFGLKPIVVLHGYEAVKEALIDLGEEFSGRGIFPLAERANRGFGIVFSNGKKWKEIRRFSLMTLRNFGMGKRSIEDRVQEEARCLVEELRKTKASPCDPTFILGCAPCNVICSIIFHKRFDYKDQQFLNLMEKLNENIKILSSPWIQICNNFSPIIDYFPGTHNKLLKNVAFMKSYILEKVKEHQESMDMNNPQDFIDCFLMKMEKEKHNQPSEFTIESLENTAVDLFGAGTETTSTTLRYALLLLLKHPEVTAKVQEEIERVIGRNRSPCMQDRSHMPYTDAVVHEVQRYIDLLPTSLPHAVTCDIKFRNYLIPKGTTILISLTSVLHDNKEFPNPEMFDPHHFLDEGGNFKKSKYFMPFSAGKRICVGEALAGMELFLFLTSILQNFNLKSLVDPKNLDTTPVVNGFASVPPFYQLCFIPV
The next series concerns the target Cytochrome P450 2D6 (Homo sapiens, UniProt P10635). The experiment in a line: Inhibition of CYP2D6. Type of series: ADME.
Another series addresses Cytochrome P450 3A4 (Homo sapiens, UniProt P08684). The experiment in a line: Inhibition of CYP3A4. Type of series: ADME.
Another series concerns Rattus norvegicus. The experiment in a line: Antiinflammatory activity in po dosed rat assessed as inhibition of LPS-induced pulmonary inflammation. In kind it is functional.
Series [7] is described as follows: Cmax in rat at 10 mg/kg, po. Type of series: ADME, organism-based. Conditions: in vivo. The arrangement: dose 10 mg/kg, route oral.

Chain of Dual 3',5'-cyclic-AMP and -GMP phosphodiesterase 11A (Q9HCR9 whole entry): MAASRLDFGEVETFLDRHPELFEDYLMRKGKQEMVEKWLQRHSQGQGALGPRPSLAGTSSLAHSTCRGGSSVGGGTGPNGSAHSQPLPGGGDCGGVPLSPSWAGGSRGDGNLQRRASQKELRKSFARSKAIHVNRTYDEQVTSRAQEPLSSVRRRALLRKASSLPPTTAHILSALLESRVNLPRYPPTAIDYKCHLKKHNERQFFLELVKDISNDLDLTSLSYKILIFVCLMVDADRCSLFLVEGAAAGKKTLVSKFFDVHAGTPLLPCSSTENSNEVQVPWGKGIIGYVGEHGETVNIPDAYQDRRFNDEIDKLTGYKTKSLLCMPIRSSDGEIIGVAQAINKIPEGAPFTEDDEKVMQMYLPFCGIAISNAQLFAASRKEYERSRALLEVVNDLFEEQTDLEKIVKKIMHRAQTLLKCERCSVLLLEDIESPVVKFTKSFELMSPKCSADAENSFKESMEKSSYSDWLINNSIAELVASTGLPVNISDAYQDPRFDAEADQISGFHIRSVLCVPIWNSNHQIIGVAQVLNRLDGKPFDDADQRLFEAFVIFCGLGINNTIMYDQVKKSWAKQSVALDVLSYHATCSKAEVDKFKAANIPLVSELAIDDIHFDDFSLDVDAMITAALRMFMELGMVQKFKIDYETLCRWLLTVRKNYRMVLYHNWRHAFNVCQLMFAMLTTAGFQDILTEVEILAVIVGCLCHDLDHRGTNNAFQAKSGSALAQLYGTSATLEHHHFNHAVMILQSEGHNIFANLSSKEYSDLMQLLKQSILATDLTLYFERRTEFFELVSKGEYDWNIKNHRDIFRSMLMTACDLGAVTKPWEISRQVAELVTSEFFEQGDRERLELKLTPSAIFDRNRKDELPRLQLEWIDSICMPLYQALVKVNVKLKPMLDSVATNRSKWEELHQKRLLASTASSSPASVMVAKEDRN
Chain of 3',5'-cyclic-AMP phosphodiesterase 4B (Q07343 whole entry): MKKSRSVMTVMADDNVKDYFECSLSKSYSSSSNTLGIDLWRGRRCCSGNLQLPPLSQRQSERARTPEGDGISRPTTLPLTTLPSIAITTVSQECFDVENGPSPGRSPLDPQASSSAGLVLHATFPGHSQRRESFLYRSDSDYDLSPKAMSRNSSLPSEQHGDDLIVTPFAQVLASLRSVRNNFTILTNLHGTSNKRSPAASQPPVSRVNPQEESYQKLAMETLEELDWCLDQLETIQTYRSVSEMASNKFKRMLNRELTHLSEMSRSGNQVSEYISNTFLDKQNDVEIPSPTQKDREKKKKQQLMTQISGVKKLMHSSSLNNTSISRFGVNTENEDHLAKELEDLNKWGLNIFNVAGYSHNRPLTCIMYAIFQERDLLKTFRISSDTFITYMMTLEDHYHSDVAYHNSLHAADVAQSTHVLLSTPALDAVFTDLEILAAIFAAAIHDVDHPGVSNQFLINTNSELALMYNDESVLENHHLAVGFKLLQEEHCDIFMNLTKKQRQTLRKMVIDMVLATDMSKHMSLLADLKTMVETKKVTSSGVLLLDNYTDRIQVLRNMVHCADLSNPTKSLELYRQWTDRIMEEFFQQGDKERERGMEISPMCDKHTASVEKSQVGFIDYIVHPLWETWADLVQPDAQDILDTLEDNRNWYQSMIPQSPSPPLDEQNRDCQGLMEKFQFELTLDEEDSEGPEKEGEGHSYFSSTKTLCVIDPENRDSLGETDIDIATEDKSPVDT
Chain of Cytochrome P450 2D6 (P10635 whole entry): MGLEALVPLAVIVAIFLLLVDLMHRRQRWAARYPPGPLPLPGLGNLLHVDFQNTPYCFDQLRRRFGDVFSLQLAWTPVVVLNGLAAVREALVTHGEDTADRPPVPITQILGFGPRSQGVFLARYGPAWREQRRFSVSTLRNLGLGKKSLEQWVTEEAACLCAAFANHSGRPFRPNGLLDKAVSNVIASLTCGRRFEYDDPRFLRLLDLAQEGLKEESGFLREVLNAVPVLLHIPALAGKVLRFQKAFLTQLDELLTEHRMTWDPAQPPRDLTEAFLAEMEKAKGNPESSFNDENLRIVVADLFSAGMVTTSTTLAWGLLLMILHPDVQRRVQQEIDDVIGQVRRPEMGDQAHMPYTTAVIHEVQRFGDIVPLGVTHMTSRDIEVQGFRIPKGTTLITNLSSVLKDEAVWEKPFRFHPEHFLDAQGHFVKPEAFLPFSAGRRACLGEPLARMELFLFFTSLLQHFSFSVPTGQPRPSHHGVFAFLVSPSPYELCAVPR
Chain of Cytochrome P450 3A4 (P08684 whole entry): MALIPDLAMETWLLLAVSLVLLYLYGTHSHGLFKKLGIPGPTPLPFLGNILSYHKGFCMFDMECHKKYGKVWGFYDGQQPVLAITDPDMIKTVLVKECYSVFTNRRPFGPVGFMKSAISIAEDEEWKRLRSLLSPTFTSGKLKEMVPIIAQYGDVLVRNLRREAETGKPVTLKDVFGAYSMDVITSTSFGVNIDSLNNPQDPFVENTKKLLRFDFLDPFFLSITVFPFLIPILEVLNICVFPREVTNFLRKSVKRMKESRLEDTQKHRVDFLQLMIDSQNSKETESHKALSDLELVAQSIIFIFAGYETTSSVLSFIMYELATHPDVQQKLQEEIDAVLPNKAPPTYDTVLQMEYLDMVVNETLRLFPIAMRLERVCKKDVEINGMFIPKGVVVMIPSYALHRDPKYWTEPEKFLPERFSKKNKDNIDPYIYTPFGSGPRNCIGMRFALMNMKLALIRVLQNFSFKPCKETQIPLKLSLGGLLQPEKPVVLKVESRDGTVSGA

In general, pIC50 refers to −log10 of the IC50, conventionally taken in molar units. A high value points to a small IC50. Consider `COc1ccc(-c2nc(C(=O)NCc3ccc(Cl)cc3Cl)c([C@H](C)N)o2)c2ccc(C(F)(F)F)nc12`, for which the pIC50 is 9.15 in series [1], 5.77 in [2] and 5.74 in [3].

Regarding `COc1ccc(-c2nc(C(=O)NCc3ccc(F)c(F)c3)c([C@H](C)N)o2)c2ccc(C(F)(F)F)nc12`, the results for the pIC50 in [1], in series [2] and in series [3] were 9.22, 5.85 and 5.70, respectively.

As to `COc1ccc(-c2nc(C(=O)N[C@H](CO)c3ccccc3)c([C@@H](C)N)o2)c2ccc(C(F)(F)F)nc12`, in series [1], the pIC50 is 8.08.

In the case of `COc1ccc(-c2nc(C(=O)NCc3ccc(F)cc3)c(CN)o2)c2ccc(C(F)(F)F)nc12`, the pIC50 is 8.39 in series [1], 5.89 in series [2] and 5.57 in series [3].

With `COc1ccc(-c2nc(C(=O)NCc3c(F)cccc3Cl)c(CN)o2)c2ccc(C(F)(F)F)nc12`, the pIC50 in series [1] is 10.00; in series [2], 6.39; in [3], 5.89.

For `COc1ccc(-c2nc(C(=O)NCc3ccccc3Cl)c(CN)o2)c2ccc(C(F)(F)F)nc12`, the pIC50 was 8.92 in [1], 6.21 in [2] and 5.64 in series [3].

Take `COc1ccc(-c2nc(C(=O)NCc3cccc(F)c3)c([C@H](C)N)o2)c2ccc(C(F)(F)F)nc12`: the pIC50 is 9.52 in [1], 6.80 in series [2] and 5.85 in [3].

On to `COc1ccc(-c2nc(C(=O)NCc3ccccc3F)c([C@H](C)N)o2)c2ccc(C(F)(F)F)nc12`, for which the pIC50 in [1] was 9.52; in [2] it was 7.10; in [3], 5.96.

`COc1ccc(-c2nc(C(=O)NCc3ccc(Cl)cc3)c([C@H](C)N)o2)c2ccc(C(F)(F)F)nc12`: the pIC50 in series [1] is 9.46; in series [2] it was 6.19; in series [3] it was 5.96.

As for `COc1ccc(-c2nc(C(=O)NCc3ccc(F)cc3F)c(CN)o2)c2ccc(C(F)(F)F)nc12`, the pIC50 in series [4] was 9.15; in series [1], 9.22; in [2], 6.00; in series [3], 5.66.

`COc1ccc(-c2nc(C(=O)NCc3c(F)cccc3F)c([C@H](C)N)o2)c2ccc(C(F)(F)F)nc12`: the pIC50 was 10.30 in [1], 6.90 in series [2] and 5.85 in series [3].

For the molecule `COc1ccccc1CNC(=O)c1nc(-c2ccc(OC)c3nc(C(F)(F)F)ccc23)oc1CN`, the pIC50 in series [1] is 9.30; in series [2] it was 6.49; in series [3], 6.06.

Turning to `COc1ccc(-c2nc(C(=O)NCc3c(F)cc(F)cc3F)c([C@H](C)N)o2)c2ccc(C(F)(F)F)nc12`, the results for the pIC50 in [1], in [2] and in series [3] were 10.40, 6.30 and 5.47, respectively.

`COc1ccc(-c2nc(C(=O)NCc3ccc(F)c(F)c3)c(CN)o2)c2ccc(C(F)(F)F)nc12`: the pIC50 in series [1] is 8.59; in series [2] it was 5.89; in series [3] it was 5.66.

In the case of `COc1ccc(-c2nc(C(=O)NCc3ccccc3)c(CN)o2)c2ccc(C(F)(F)F)nc12`, the figures for the pIC50 in series [1], in [2] and in series [3] were 8.43, 5.92 and 5.32, respectively.

With `COc1ccc(-c2nc(C(=O)N[C@H](CO)c3ccccc3)c(CN)o2)c2ccc(C(F)(F)F)nc12`, in series [1], the pIC50 is 8.80.

On to `COc1ccc(-c2nc(C(=O)NCc3ccc(Cl)cc3)c(CN)o2)c2ccc(C(F)(F)F)nc12`, for which the values for the pIC50 in series [1], in series [2] and in series [3] were 8.47, 5.68 and 5.57, respectively.

Consider `COc1ccc(-c2nc(C(=O)NCc3cccc(Cl)c3)c(CN)o2)c2ccc(C(F)(F)F)nc12`, for which the pIC50 is 8.82 in [1], 6.11 in [2] and 5.68 in series [3].

With `COc1ccc(-c2nc(C(=O)NCc3c(F)cccc3Cl)c([C@H](C)N)o2)c2ccc(C(F)(F)F)nc12`, the pIC50 in [1] was 10.52; in series [2], 6.92; in series [3] it was 5.80.

Usually bioavailability stands for dose-corrected exposure relative to a reference, in per cent. Low readings indicate little systemic uptake, high ones much systemic uptake. One may read the ED50 as the midpoint of the dose-response relation. A word on the Cmax: it is the peak of the concentration-time curve. On to `COc1ccc(-c2nc(C(=O)NCc3ccc(F)cc3F)c([C@H](C)N)o2)c2ccc(C(F)(F)F)nc12`, for which the pIC50 is 9.22 in series [5]; 10.22 in [1]; less than 5.10 at Cytochrome P450 2C19; 6.02 in series [2]; less than 5.10 on Cytochrome P450 2C9; less than 5.10 on Cytochrome P450 2D6. In addition, the pIC50 is less than 5.10 against Cytochrome P450 3A4 and 5.64 in series [3]. In [6], this molecule came in with a bioavailability of 24%. Further, the ED50 with Rattus norvegicus came to 0.1 mg/kg. This molecule also had a Cmax in [7] of 960 nM.

In series [1], `COc1ccc(-c2nc(C(=O)NCc3ccc(C#N)cc3)c(CN)o2)c2ccc(C(F)(F)F)nc12` showed a pIC50 of 7.59.

Consider `COc1ccc(-c2nc(C(=O)NCc3ccc(Cl)cc3Cl)c(CN)o2)c2ccc(C(F)(F)F)nc12`, for which the figures for the pIC50 in [1], in series [2] and in series [3] were 8.37, 5.89 and 5.96, respectively.

For `COc1ccc(-c2nc(C(=O)NCc3ccc(Cl)cc3F)c(CN)o2)c2ccc(C(F)(F)F)nc12`, the figures for the pIC50 in [1], in [2] and in [3] were 8.57, 5.66 and 5.57, respectively.

Take `COc1ccc(-c2nc(C(=O)NCc3c(F)cccc3F)c(CN)o2)c2ccc(C(F)(F)F)nc12`: the pIC50 in series [1] is 9.34; in series [2], 6.62; in series [3], 5.60.

`CC[C@H](N)c1oc(-c2ccc(OC)c3nc(C(F)(F)F)ccc23)nc1C(=O)NCc1ccc(Cl)cc1` showed a pIC50 in series [1] of 9.09.

Take `COc1ccc(-c2nc(C(=O)NCc3ccccc3F)c(CN)o2)c2ccc(C(F)(F)F)nc12`: the values for the pIC50 in [1], in series [2] and in series [3] were 9.05, 6.30 and 5.44, respectively.

Take `COc1ccc(-c2nc(C(=O)NCc3ccc(Cl)cc3)c([C@@H](N)CO)o2)c2ccc(C(F)(F)F)nc12`: the pIC50 in [1] is 7.90.

Regarding `COc1ccc(-c2nc(C(=O)NCc3ccc(F)cc3F)c([C@@H](N)C(C)C)o2)c2ccc(C(F)(F)F)nc12`, the pIC50 in series [1] was 9.44.

Take `COc1ccc(-c2nc(C(=O)NCc3ccc(Cl)cc3F)c([C@H](C)N)o2)c2ccc(C(F)(F)F)nc12`: the values for the pIC50 in series [1], in series [2] and in series [3] were 9.15, 6.15 and 5.96, respectively.

`COc1ccc(-c2nc(C(=O)NCc3ccc(S(C)(=O)=O)cc3)c(CN)o2)c2ccc(C(F)(F)F)nc12` showed a pIC50 in series [1] of 7.43.

Take `COc1ccc(-c2nc(C(=O)NCc3cccc(F)c3)c(CN)o2)c2ccc(C(F)(F)F)nc12`: the negative logarithm of the IC50 (pIC50) in series [1] is 8.74; in [2] it was 6.09; in series [3], 5.41.

In turn, `COc1ccc(-c2nc(C(=O)N[C@H](CO)c3ccccc3)c([C@H](C)N)o2)c2ccc(C(F)(F)F)nc12` gave a pIC50 in series [1] of 9.96.
